Experimental data from ChEMBL document CHEMBL1201862, “PubChem BioAssay data set” (2004).
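Dose response: 5 concentrations. Exposure: 48 h. Format: 96-well plates. Endpoint: linear interpolation; highest concentration if not reached. GI50 = concentration required for 50% inhibition of growth.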 Activity calls are given as the source filed them. Cut-off read from the data, not from the text of the source: active = GI50 up to about 1.1 µM and inactive = higher.

Columns and labels:
Test in all cases: NCI anticancer screen, dose series, 48 h
[1] = tested on: HOP-62
[2] = tested on: M14
[3] = tested on: SW-620
[4] = tested on: U-251
[5] = tested on: CAKI-1
[6] = tested on: OVCAR-3
[7] = tested on: TK-10
[8] = tested on: Malme-3M
[9] = tested on: LXFL 529
[10] = tested on: MOLT-4
[11] = tested on: SF-268
[12] = tested on: KM-20L2
[13] = tested on: UACC-257
[14] = tested on: M19-MEL
[15] = tested on: HL-60
[16] = tested on: HCT-15
[17] = tested on: DMS-114
[18] = tested on: NCI-H460
[19] = tested on: SNB-75
[20] = tested on: SF-539
[21] = tested on: SN12C
[22] = tested on: UACC-62
[23] = tested on: SK-MEL-2
[24] = tested on: SK-MEL-5
[25] = tested on: K562
[26] = tested on: SK-OV-3
[27] = tested on: EKVX
[28] = tested on: IGROV-1
[29] = tested on: COLO 205
[30] = tested on: UO-31
[31] = tested on: NCI-H23
[32] = tested on: HCT-116
[33] = tested on: SNB-19
[34] = tested on: CCRF-CEM
[35] = tested on: SF-295
[36] = tested on: ACHN
[37] = tested on: 786-0
[38] = tested on: OVCAR-5
[39] = tested on: DLD-1
[40] = tested on: SK-MEL-28
[41] = tested on: HOP-92
[42] = tested on: NCI-H226
[43] = tested on: XF498
[44] = tested on: RPMI-8226
[45] = tested on: OVCAR-8
[46] = tested on: HT-29
[47] = tested on: RXF 631
[48] = tested on: NCI-H522
[49] = tested on: A498
[50] = tested on: DMS-273
[51] = tested on: KM12
[52] = tested on: A549
[53] = tested on: OVCAR-4
[54] = tested on: LOX IMVI
[55] = tested on: SNB-78
[56] = tested on: SR
[57] = tested on: RXF 393
[58] = tested on: HOP-18
[59] = tested on: HCC 2998

## O=C1C2=C(c3ccccc31)C(c1ccc([N+](=O)[O-])cc1)NC(S)=N2 (stereo not given)
[1]
  GI50: > 100 µM (inactive)
[2]
  GI50: 91.2 µM (inactive)
[3]
  GI50: 81.1 µM (inactive)
[4]
  GI50: > 100 µM (inactive)
[5]
  GI50: > 100 µM (inactive)
[6]
  GI50: 49.9 µM (inactive)
[7]
  GI50: > 100 µM (inactive)
[8]
  GI50: 80.7 µM (inactive)
[9]
  GI50: 41 µM (inactive)
[10]
  GI50: 35.4 µM (inactive)
[11]
  GI50: 42.2 µM (inactive)
[12]
  GI50: > 100 µM (inactive)
[13]
  GI50: > 100 µM (inactive)
[14]
  GI50: 78.9 µM (inactive)
[15]
  GI50: 35.6 µM (inactive)
[16]
  GI50: 51.9 µM
[17]
  GI50: 36.8 µM (inactive)
[18]
  GI50: 67.8 µM (inactive)
[19]
  GI50: 23.9 µM (inactive)
[20]
  GI50: > 100 µM (inactive)
[21]
  GI50: 47.4 µM (inactive)
[22]
  GI50: 43.5 µM (inactive)
[23]
  GI50: 96.8 µM (inactive)
[24]
  GI50: 27.4 µM (inactive)
[25]
  GI50: 49.1 µM (inactive)
[26]
  GI50: > 100 µM (inactive)
[27]
  GI50: > 100 µM (inactive)
[28]
  GI50: 50 µM (inactive)
[29]
  GI50: > 100 µM (inactive)
[30]
  GI50: 31.8 µM (inactive)
[31]
  GI50: 38.5 µM (inactive)
[32]
  GI50: 38.5 µM (inactive)
[33]
  GI50: 97.3 µM (inactive)
[34]
  GI50: 38.7 µM (inactive)
[35]
  GI50: 58.6 µM (inactive)
[36]
  GI50: 70 µM (inactive)
[37]
  GI50: > 100 µM (inactive)
[38]
  GI50: > 100 µM (inactive)
[39]
  GI50: 69 µM (inactive)
[40]
  GI50: 59.3 µM (inactive)
[41]
  GI50: 51.1 µM (inactive)
[42]
  GI50: 19.2 µM (inactive)
[43]
  GI50: 31.5 µM (inactive)
[44]
  GI50: 30.2 µM (inactive)
[45]
  GI50: > 10 µM (inactive)
[46]
  GI50: > 100 µM (inactive)
[47]
  GI50: > 100 µM (inactive)
[48]
  GI50: 30.5 µM (inactive)
[49]
  GI50: > 100 µM (inactive)
[50]
  GI50: 59.4 µM (inactive)
[51]
  GI50: 87.7 µM (inactive)
[52]
  GI50: 48.5 µM (inactive)
[53]
  GI50: 42.6 µM (inactive)

## Cc1ccc(NC(=O)CCCC(=O)CC(=O)c2ccc(Br)cc2)cc1
[1]
  GI50: > 100 µM (inactive)
[2]
  GI50: > 100 µM (inactive)
[3]
  GI50: > 100 µM (inactive)
[4]
  GI50: > 100 µM (inactive)
[5]
  GI50: > 100 µM (inactive)
[6]
  GI50: > 100 µM (inactive)
[7]
  GI50: > 100 µM (inactive)
[8]
  GI50: > 100 µM (inactive)
[9]
  GI50: > 100 µM (inactive)
[10]
  GI50: > 100 µM (inactive)
[11]
  GI50: > 100 µM (inactive)
[12]
  GI50: > 100 µM (inactive)
[13]
  GI50: > 100 µM (inactive)
[54]
  GI50: > 100 µM (inactive)
[14]
  GI50: > 100 µM (inactive)
[16]
  GI50: > 100 µM
[17]
  GI50: > 100 µM (inactive)
[18]
  GI50: > 100 µM (inactive)
[19]
  GI50: 34.4 µM (inactive)
[55]
  GI50: > 100 µM (inactive)
[20]
  GI50: > 100 µM (inactive)
[21]
  GI50: > 100 µM (inactive)
[22]
  GI50: > 100 µM (inactive)
[23]
  GI50: > 100 µM (inactive)
[24]
  GI50: > 100 µM (inactive)
[56]
  GI50: > 100 µM (inactive)
[25]
  GI50: > 100 µM (inactive)
[26]
  GI50: > 100 µM (inactive)
[27]
  GI50: > 100 µM (inactive)
[28]
  GI50: > 100 µM (inactive)
[29]
  GI50: > 100 µM (inactive)
[30]
  GI50: > 100 µM (inactive)
[31]
  GI50: > 100 µM (inactive)
[32]
  GI50: > 100 µM (inactive)
[33]
  GI50: > 100 µM (inactive)
[34]
  GI50: > 100 µM (inactive)
[35]
  GI50: > 100 µM (inactive)
[36]
  GI50: > 100 µM (inactive)
[37]
  GI50: > 100 µM (inactive)
[57]
  GI50: > 100 µM (inactive)
[38]
  GI50: > 100 µM (inactive)
[39]
  GI50: > 100 µM (inactive)
[58]
  GI50: > 100 µM (inactive)
[40]
  GI50: > 100 µM (inactive)
[41]
  GI50: > 100 µM (inactive)
[42]
  GI50: > 100 µM (inactive)
[44]
  GI50: > 100 µM (inactive)
[45]
  GI50: > 100 µM (inactive)
[46]
  GI50: > 100 µM (inactive)
[47]
  GI50: > 100 µM (inactive)
[48]
  GI50: > 100 µM (inactive)
[49]
  GI50: > 100 µM (inactive)
[50]
  GI50: > 100 µM (inactive)
[59]
  GI50: > 100 µM (inactive)
[51]
  GI50: > 100 µM (inactive)
[52]
  GI50: > 100 µM (inactive)
[53]
  GI50: > 100 µM (inactive)
